Results from patent US11225481B2 (Centre national de la recherche scientifique, priority 2015, dated 2022).
“And” between values parts separate entries of the source, which are not always exact repeats. Equal entries are not always repeated.

Biological target: T1, BRD4(BD1) (Homo sapiens, UniProt O60885)
T1 construct: a BRD4(BD1) synthetic gene that includes a TEV cleavage site was purchased from LifeTechnology; made in house
Experiment: HTRF assay, disruption of bromodomain/histone peptide interaction
Type: binding
Settings: HTRF; Table 1′, TABLE 2; read-out: BRD4(BD1) IC50
Experimental: HTRF assays were performed in white 384 Well Small Volume™ HiBase Polystyrene Microplates (Greiner) with a total working volume of 20 μL. Compounds were dispensed, with 200 nL per well (1% final DMSO), from a concentration stock of 1 mM in 100% DMSO and with serial DMSO dilutions, using a Mosquito Crystal pipetting robot platform (TTP labtech). The IC50 measurements were performed in triplicates (Table 2 and 3). All HTRF reagents were purchased from CisBio Bioassays and reconstituted according to the supplier protocols. For each assay 14.7 μL of mix 1 (protein+peptide) is added in the assay wells, containing previously dispensed inhibitors, according to the final concentration and buffer described in Table 4, using a Biomek NX MC pipetting robot (Beckman). Then, 5.1 μL of mix 2 (donnor+acceptor) is added. HTRF signals were measured, after a final incubation (overnight at room temperature), using a PHERAstar FS (BMG Labtech) with an excitation filter at 337 nm and fluorescence wavelength measurement at 620 and 665 nm, an integration delay of 60 μs and an integration time of 500 μs. Results were analyzed with a two-wavelengths signal ratio: [intensity (665 nm)/intensity (620 nm)]*10^4. Percentage of inhibition was calculated using the following equation: % inhibition=[(compound signal)−(min signal)]/[(max signal)−(min signal)]*100, where ‘max signal’ is the signal ratio with the compound vehicle alone (DMSO) and ‘min signal’ the signal ratio without peptide.
For Isothermal Titration Calorimetry (ITC) and crystallogenesis, BRD4(BD1) was produced and purified using a histidine tag affinity chromatography as described by Filipakopoulos et al.9 For these experiments, a pNIC28-BSA4 expression vector containing BRD4(BD1) and a Tobacco Etch Virus (TEV) protease cleavage site have kindly been provided by Stefan Knapp laboratory from the SGC at the University of Oxford. After size exclusion chromatography, the fractions presenting pure BRD4(BD1) after TEV cleavage of the histidine tag were pooled and concentrated to 25 mg/mL for crystallogenesis. For ITC assays, the protein was concentrated up to at 6 mg/mL and the DTT was removed using a buffer exchange column (PD10 from GE healthcare) equilibrated with 10 mM HEPES pH=7.5, 150 mM NaCl. For Homogeneous Time Resolved Fluorimetry (HTRF) experiments, a BRD4(BD1) synthetic gene that includes a TEV cleavage site was purchased from LifeTechnology in a pDONR transport vector before cloning into a pDESTTM15 expression vector for GST affinity purification. Protein production and purification was carried out using similar protocols and buffers as used for the His-BRD4(BD1) system. Purification was carried on GST affinity resin (Thermo Scientific) and reduced glutathione was used for protein release. GST-BRD4(BD1) was further purified by size exclusion chromatography on a Superdex 16/60 Hiload column (GE Healthcare) using 20 mM TRIS pH=8.0, 150 mM NaCl Buffer.

Row | SMILES | IC50
1 | CCCCc1c(C)nc2nc(SCc3nc4c(c(=O)[nH]c(=O)n4Cc4ccc(Cl)cc4)n3CC)nn2c1C [Compound 27b, 8-(6-Butyl-5,7-dimethyl-[1,2,4]triazolo[1,5-a]pyrimidin-2-ylsulfanylmethyl)-3-(4-chlorobenzyl)-7-ethyl-3,7-dihydro-purine-2,6-dione] | 20 µM and 20.4 µM

Same assay, conditions: HTRF; mean ± SD of three experiments; Table 2; read-out: IC50 μM, effect on BRD4(BD1) activity

Row | SMILES | IC50
2 | CCCCc1c(C)nc2nc(SCc3nc4c(c(=O)[nH]c(=O)n4Cc4ccc(Cl)cc4)n3CC)nn2c1C [Compound 27b, 8-(6-Butyl-5,7-dimethyl-[1,2,4]triazolo[1,5-a]pyrimidin-2-ylsulfanylmethyl)-3-(4-chlorobenzyl)-7-ethyl-3,7-dihydro-purine-2,6-dione] | 20.4 µM

Same assay, conditions: LE = 1.4(−log(IC50)/N), BRD4(BD1)

Row | SMILES | LE (Ligand Efficiency)
3 | CCCCc1c(C)nc2nc(SCc3nc4c(c(=O)[nH]c(=O)n4Cc4ccc(Cl)cc4)n3CC)nn2c1C [Compound 27b, 8-(6-Butyl-5,7-dimethyl-[1,2,4]triazolo[1,5-a]pyrimidin-2-ylsulfanylmethyl)-3-(4-chlorobenzyl)-7-ethyl-3,7-dihydro-purine-2,6-dione] | 0.15

Same assay, conditions: Table 3 selectivity profile; mean ± SD of three experiments; read-out: IC50 (μM) BRD4(BD1)

Row | SMILES | IC50
4 | CCCCc1c(C)nc2nc(SCc3nc4c(c(=O)[nH]c(=O)n4Cc4ccc(Cl)cc4)n3CC)nn2c1C [Compound 27b, 8-(6-Butyl-5,7-dimethyl-[1,2,4]triazolo[1,5-a]pyrimidin-2-ylsulfanylmethyl)-3-(4-chlorobenzyl)-7-ethyl-3,7-dihydro-purine-2,6-dione] | 20.4 ± 3.6 µM

Biological target: T1, BRD4(BD1)
Experiment: HTRF assay on robot-synthesised focused library (Example 4 bis)
Type: binding
Settings: Table 2 bis; focused library without intermediary purification; read-out: HTRF (IC50, μM), effect on BRD4(BD1) activity
Experimental: (§1) The Accelerator Synthetizer SLT100 allows the efficient synthesis of the focused library in 96 well plates that can be directly transferred to a Labcyte Access/Echo® Laboratory Workstation to assess the compounds for their ability to disrupt bromodmain/histone complexes using the homogeneous time-resolved fluorescence (HTRF®) technology (IC50 μM).
as §1, with “After” for “The Accelerator Synthetizer SLT100 allows”, “with the Accelerator Synthetizer SLT100, the focused library has been” for “that can be”, “μM, table 2bis).” for “μM).”

Row | SMILES | IC50
5 | CCCCn1c(=O)[nH]c(=O)c2c1nc(CSc1nc3cc(C(=O)OC)ccc3o1)n2CC [Compound 38] | 48.2 µM
6 | CCCCn1c(=O)[nH]c(=O)c2c1nc(CSc1nc3cc(S(=O)(=O)N4CCOCC4)ccc3[nH]1)n2CC [Compound 39] | 38.2 µM
7 | CCCCn1c(=O)[nH]c(=O)c2c1nc(CSc1nc3ccc([NH2+][O-])cc3[nH]1)n2CC [Compound 40] | 33 µM
8 | CCCCn1c(=O)[nH]c(=O)c2c1nc(CSc1nc3cc(C(=O)OCC)ccc3n1CC)n2CC [Compound 41] | 6.4 µM
9 | CCCCn1c(=O)[nH]c(=O)c2c1nc(COc1nc3cc(C(=O)O)ccc3[nH]1)n2CC [Compound 42] | 45.3 µM
10 | CCCCn1c(=O)[nH]c(=O)c2c1nc(COc1ccc(-n3[nH]c(C(=O)O)cc3=O)nn1)n2CC [Compound 43] | 33.4 µM
11 | CCCCn1c(=O)[nH]c(=O)c2c1nc(COc1ccc(-n3ncc(C(=O)O)c3CC)nn1)n2CC [Compound 44] | 21.9 µM
12 | CCCCn1c(=O)[nH]c(=O)c2c1nc(COc1ccc(C3CNCC3C(=O)O)cc1)n2CC (stereo not drawn) [Compound 45] | 11.6 µM
13 | CCCCn1c(=O)[nH]c(=O)c2c1nc(CSc1nnc(-c3ccccc3)c(-c3ccccc3)n1)n2CC [Compound 46] | 20.1 µM
14 | CCCCn1c(=O)[nH]c(=O)c2c1nc(COc1ccc3c(=O)c(Oc4ccccc4)coc3c1)n2CC [Compound 47] | 30.1 µM
15 | CCCCn1c(=O)[nH]c(=O)c2c1nc(COc1ccc3c(=O)c(-c4ccccc4)coc3c1)n2CC [Compound 48] | 35.2 µM
16 | CCCCn1c(=O)[nH]c(=O)c2c1nc(COc1cn3cc(C(=O)O)ccc3n1)n2CC [Compound 49] | 35.1 µM
17 | CCCCn1c(=O)[nH]c(=O)c2c1nc(COc1cccc(C(=O)NCc3ccccc3)c1)n2CC [Compound 51] | 30.2 µM
18 | CCCCn1c(=O)[nH]c(=O)c2c1nc(COc1ccc(Nc3nc4ccccc4c(=O)[nH]3)cc1)n2CC [Compound 52] | 33 µM
19 | CCCCn1c(=O)[nH]c(=O)c2c1nc(CSc1nc(O)c3c(C)cc(C)nc3n1)n2CC [Compound 53] | 4.4 µM
20 | CCCCn1c(=O)[nH]c(=O)c2c1nc(CSc1nc3nc(C)ccc3o1)n2CC [Compound 54] | 7.1 µM
21 | CCn1c(CSc2nc3nc(C)c(CCC(=O)O)c(C)n3n2)nc2c1c(=O)[nH]c(=O)n2Cc1ccc(Cl)cc1 [Compound 55] | 14.2 µM
22 | CCn1c(CSc2nc3ccc(C(=O)O)cc3o2)nc2c1c(=O)[nH]c(=O)n2Cc1ccc(Cl)cc1 [Compound 56] | 13.2 µM
23 | CCn1c(CSc2nc3cc(C(=O)O)ccc3o2)nc2c1c(=O)[nH]c(=O)n2Cc1ccc(Cl)cc1 [Compound 57] | 7.5 µM
24 | CCn1c(CSc2nc3cc(S(=O)(=O)N4CCCCC4)ccc3o2)nc2c1c(=O)[nH]c(=O)n2Cc1ccc(Cl)cc1 [Compound 58] | 2.7 µM

Row | SMILES | IC50
25 | CCn1c(CSc2nc3cc(S(=O)(=O)CC)ccc3o2)nc2c1c(=O)[nH]c(=O)n2Cc1ccc(Cl)cc1 [Compound 59] | 6.9 µM
26 | CCn1c(CSc2nc3cc([N+](=O)[O-])ccc3o2)nc2c1c(=O)[nH]c(=O)n2Cc1ccc(Cl)cc1 [Compound 60] | 8.4 µM
27 | CCn1c(CSc2nc3cc(S(=O)(=O)N(C)C)ccc3o2)nc2c1c(=O)[nH]c(=O)n2Cc1ccc(Cl)cc1 [Compound 61] | 4.7 µM
28 | CCn1c(CSc2nc3cc(S(=O)(=O)N4CCOCC4)ccc3o2)nc2c1c(=O)[nH]c(=O)n2Cc1ccc(Cl)cc1 [Compound 62] | 8.9 µM
29 | CCn1c(CSc2nc3cc(C(=O)OC)ccc3o2)nc2c1c(=O)[nH]c(=O)n2Cc1ccc(Cl)cc1 [Compound 63] | 8.9 µM
30 | CCn1c(CSc2nc3ccc(C(=O)O)cc3[nH]2)nc2c1c(=O)[nH]c(=O)n2Cc1ccc(Cl)cc1 [Compound 64] | 5.1 µM
31 | CCn1c(CSc2nc3cc(S(=O)(=O)N4CCOCC4)ccc3[nH]2)nc2c1c(=O)[nH]c(=O)n2Cc1ccc(Cl)cc1 [Compound 65] | 32.7 µM
32 | CCOC(=O)c1ccc2c(c1)nc(SCc1nc3c(c(=O)[nH]c(=O)n3Cc3ccc(Cl)cc3)n1CC)n2CC [Compound 66] | 16.8 µM
33 | CCCCNS(=O)(=O)c1ccc2nc(SCc3nc4c(c(=O)[nH]c(=O)n4Cc4ccc(Cl)cc4)n3CC)[nH]c2c1 [Compound 67] | 8.9 µM
34 | CCn1c(COc2nc3cc(C(=O)O)ccc3[nH]2)nc2c1c(=O)[nH]c(=O)n2Cc1ccc(Cl)cc1 [Compound 68] | 35.5 µM
35 | CCn1c(COc2ccc(-n3[nH]c(C(=O)O)cc3=O)nn2)nc2c1c(=O)[nH]c(=O)n2Cc1ccc(Cl)cc1 [Compound 69] | 8.4 µM
36 | CCc1c(C(=O)O)cnn1-c1ccc(OCc2nc3c(c(=O)[nH]c(=O)n3Cc3ccc(Cl)cc3)n2CC)nn1 [Compound 70] | 6.5 µM
37 | CCn1c(COc2nnc(-c3ccccc3)c(-c3ccccc3)n2)nc2c1c(=O)[nH]c(=O)n2Cc1ccc(Cl)cc1 [Compound 71] | 17.8 µM
38 | CCn1c(COc2ncc(-c3ccc(C(=O)O)s3)cc2C)nc2c1c(=O)[nH]c(=O)n2Cc1ccc(Cl)cc1 [Compound 72] | 4.4 µM
39 | CCn1c(COc2ccc(C3NC(C(=O)O)CS3)cc2)nc2c1c(=O)[nH]c(=O)n2Cc1ccc(Cl)cc1 (stereo not drawn) [Compound 73] | 7.5 µM
40 | CCn1c(CSc2nnc(Cc3cc(C)nn3C)n2CC2CCCO2)nc2c1c(=O)[nH]c(=O)n2Cc1ccc(Cl)cc1 (stereo not drawn) [Compound 74] | 5.5 µM
41 | CCn1c(COc2cccc(C(=O)NCc3ccccc3)c2)nc2c1c(=O)[nH]c(=O)n2Cc1ccc(Cl)cc1 [Compound 75] | 3.9 µM
42 | CCn1c(COc2ccc(Nc3nc4ccccc4c(=O)[nH]3)cc2)nc2c1c(=O)[nH]c(=O)n2Cc1ccc(Cl)cc1 [Compound 76] | 12.7 µM
43 | CCn1c(CSc2nc3nc(C)c(Br)cc3[nH]2)nc2c1c(=O)[nH]c(=O)n2Cc1ccc(Cl)cc1 [Compound 79] | 4.2 µM
44 | CCn1c(CSc2nc3ncccn3n2)nc2c1c(=O)[nH]c(=O)n2Cc1ccc(Cl)cc1 [Compound 80] | 10.6 µM

Test system: BET bromodomains
Experiment: Selectivity profile across BET bromodomains (HTRF)
Type: binding
Settings: in words
Experimental: Selectivity profiles of bromodomain inhibitors were performed as described in HTRF screen section. […] HTRF detection reagents (EPIgeneous™ Binding Domain kits) were purchased from Cisbio Bioassays and used according to supplier's protocol. GST tagged bromodomain proteins were purchased from BPS Bioscience and histone peptide from Anaspec.

Row | SMILES | selectivity profile among BET bromodomains
45 | CCCCc1c(C)nc2nc(SCc3nc4c(c(=O)[nH]c(=O)n4Cc4ccc(Cl)cc4)n3CC)nn2c1C [Compound 27b, 8-(6-Butyl-5,7-dimethyl-[1,2,4]triazolo[1,5-a]pyrimidin-2-ylsulfanylmethyl)-3-(4-chlorobenzyl)-7-ethyl-3,7-dihydro-purine-2,6-dione] | selective towards BRD4(BD1)
